Laboratory results: patent US6300519A, “Antivirally active heterocyclic azahexane derivatives” (Novartis Finance Corporation, priority 1996, dated 2001)

Experiments:
[1] = test system: resistant variant (45I,76F strain)
Excerpt: (§1) By way of PCR-supported mutagenesis and cloning, HIV-1 protease mutants are generated that are based on the infectious clone pNL4-3 (freely available via the "NIH AIDS reference and reagent program", the original reference is A. Adachi et al. J. Virol (1986) 59, 284-91--but it can, of course, be any other HIV clone, or even clinical material, provided that comparability is ensured). […] The cloned fragments are, for example, only 500 base pairs in length, all of the remainder being unchanged. By using mutations in always the same clone, direct comparability is ensured, which would rot be the case in a direct comparison of clinical samples or of different HIV clones.
(§2) That system is used as a transient DNA transfection system for tests:
(§3) Instead of the strains mentioned, there may be used any human T4-positive cells, such as the HeLa T4 cells, deposited under that name by Richard Axel and Paul Maddon in "NIH AIDS reference and reagent program" and obtainable via that source.

[2] = test system: 46I/47V/50V (VX478) strain; experiment: Transient DNA transfection assay, strain 46I/47V/50V (VX478); format: cell-based, HIV-1; conditions: 1 nM
Excerpt: as §1, §2, §3

With `COC(=O)N[C@H](C(=O)N[C@@H](Cc1ccccc1)[C@@H](O)CN(Cc1ccc(-c2ccccn2)cc1)NC(=O)[C@@H](NC(=O)OC)C(C)(C)C)C(C)(C)C` [Example 46, 1-[4-(Pyridin-2-yl)-phenyl]-4(S)-hydroxy-5(S)-2,5-bis[N-(N-methoxycarbonyl-(L)-tert-leucyl)amino]-6-phenyl-2-azahexane] the “activity against a resistant variant (45I,76F strain) compared with saquinavir, indinavir, ritonavir” value [1] was “comparable with saquinavir and better than that of indinavir (Merck & Co., Inc., see below) or ritonavir” and the “activity against strain 46I/47V/50V (VX478) compared with saquinavir, ritonavir and indinavir” value [2] was “more potent (not quantified) than that of saquinavir, ritonavir and indinavir”.
